According to patent publication US20070099995A1, “Use of hydroxyoleic acid and related compounds as functional food additives” (priority 2003, published 2007):

How the values were obtained:
[1] = Hypotensive test: systolic arterial pressure in female Sprague-Dawley rats; format: in vivo, rat; details: for effect on systolic arterial pressure with respect to the control: short-term (2 to 4 hours) administration, female Sprague-Dawley rats, FIG. 5; for reduction of blood pressure: rats
Procedure: (§1) 2-Hydroxyoleic acid induced significant reductions of blood pressure in rats (FIG. 4a). These reductions occurred rapidly (at 2 hours of treatment, 19±6 mmHg, P<0.01, n=6) and after a long period (1 week, 26±7 mmHg, P<0.001, n=6). In genetically hypertensive rats, SHR strain, ingestion of 2-hydroxyoleic acid (600 mg/kg every 12 hours) produced very marked reductions in blood pressure. These reductions, of some 70 mmHg, induced normalization of systolic pressure in hypertensive SHR rats.

[2] = Blood pressure and heart rate after ingestion (species not stated); format: in vivo; details: chronic treatments lasting a week
Procedure: The hypotensive effect produced by ingestion of 2-hydroxyoleic acid and its analogs results in a reduction in blood pressure within 2 hours of ingestion, and this is maintained for days and weeks while ingestion of this compound is maintained. Aminoleic acid, for example, reduces blood pressure by 15 mmHg in chronic treatments lasting a week.

[3] = Blood pressure in humans; format: in vivo, human; details: 90 mg/kg per day for 8 days, FIG. 4b
Text: The days prior to treatment are shown with negative values. *P<0.05, **P<0.01.

[4] = Systolic arterial pressure in genetically hypertensive rats, SHR strain; format: in vivo, rat
Procedure: as §1
(§2) In SHRs which were not given 2-hydroxyoleic acid (SHR empty squares), no reduction in arterial pressure was observed. […] The reduction induced by hydroxyoleic acid on arterial pressure meant that there was no significant difference between the values registered at the end of the diet period for the hypertensive and normotensive rats.

[5] = Systolic arterial pressure in normotensive WKY rats; format: in vivo, rat; details: male WKY (normotensive) rats, 600 mg/kg every 12 hours for 7 days, FIG. 6
Procedure: as §1, §2

[6] = Body weight of normotensive (WKY) and hypertensive (SHR) rats; format: in vivo, rat; details: 600 mg/kg every 12 hours, 8 days
Procedure: In another series of experiments, the diet of normotensive rats (WKY) and hypertensive rats (SHR) was supplemented with hydroxyoleic acid (600 mg/kg, every 12 hours) and it was confirmed that the weight of the animals decreased by between 30 and 40 grams (15-20% of the body weight) in an 8-day diet period (FIG. 8).

[7] = system: G-proteins; assay: Binding of [35S]GTPγS to membranes of NIH 3T3 cells transfected with the rat adrenoceptor α2A/D (activity of G-proteins); format: biochemical; details: membranes of NIH 3T3 cells transfected with rat adrenoceptor α2A/D; FIG. 2; compared with daunomycin
Text: Hydroxyoleic acid and related compounds are capable of modulating the activity of G-proteins, measured by the binding of [^35S] GTPγS (FIG. 2). […] Abscissa: C=control; 2OHOA=2-hydroxyoleic; DNM=daunomycin. Ordinate: Binding of [^35S]GTPγS (% of control).

CCCCCCCC/C=C\CCCCCCCC(=O)O [oleic acid]
effect on systolic arterial pressure with respect to the control [1]: significant decreases

CCCCCC/C=C\CCCCCCCCCC(=O)O [cis-vaccenic acid]
effect on systolic arterial pressure with respect to the control [1]: significant decreases

Aminoleic acid
reduction of blood pressure [2]: 15 mmHg

CCCCCCCC/C=C\CCCCCCC(C)C(=O)O (stereo not drawn) [2-methyl oleic acid]
effect on systolic arterial pressure with respect to the control [1]: significant decreases

CCCCCCCC/C=C\CCCCCCCCCCCCCC(=O)O [nervonic acid]
effect on systolic arterial pressure with respect to the control [1]: significant decreases

CCCCCCCC/C=C\CCCCCCC(O)C(=O)O (stereo not drawn) [2-hydroxyoleic acid, cis-2-hydroxy-9-octadecenoic acid]
effect on blood pressure [3]: significant, large decreases | reduction in blood pressure (systolic) ([4]; SHR rats, 600 mg/kg every 12 hours): ~70 mmHg | effect on systolic arterial pressure ([4]; male SHR rats, 600 mg/kg every 12 hours for 7 days, FIG. 6): significant, large reductions | effect on arterial pressure [5]: neither the 2-hydroxyoleic acid (black circles) nor the vehicle (empty circles) produced statistically significant changes | reduction in body weight [6]: 15-20% | Binding of [35S]GTPγS (function of the G-proteins) [7]: decrease in function of the G-proteins even greater than daunomycin | reduction of blood pressure ([1]; 1 week (chronic, 90 mg/kg per day for 7 days, FIG. 4a), n=6, P<0.001): 26±7 mmHg | reduction of blood pressure ([1]; at 2 hours of treatment (acute, 30 mg/kg, FIG. 4a), n=6, P<0.01): 19±6 mmHg | effect on systolic arterial pressure with respect to the control [1]: significant decreases

CCCCCC/C=C\CCCCCCCC(=O)O [palmitoleic acid]
effect on systolic arterial pressure with respect to the control [1]: significant decreases
